Columns and labels:
[1] = Water solubility, dispersibility and stability of aqueous solution after sonication; format: physicochemical
Protocol: An α-form ZnPc nanowire solution was prepared by adding 1 mg of α-form ZnPc nanowires collected from Si substrates into 5 ml of water, followed by sonication for various times in a bath sonicator (UC-10, JEIOTECH). The final solution was transferred for the measurement of optical absorbance using a UV-vis spectrometer (Agilent 8453 spectrophotometer). The concentration of the α-form ZnPc nanowire solution was determined by measurement of optical absorbance at 219 nm. The calibration curve was made by measuring the optical absorbance of a sequentially diluted solution at 219 nm.

[2] = Photothermal property: temperature change of aqueous solutions upon laser irradiation; format: physicochemical; conditions: 3 W/cm^2, 3 minutes
Protocol: The PT property was examined by monitoring temperature changes of α-form ZnPc nanowire aqueous solutions (60, 80, 120 mg/L) upon light illumination at two different wavelengths (λ) of 660 nm, at which the highest absorption occurs, and 808 nm, at which most biological systems become transparent, at the power of 3 W/cm^2.
The α-form ZnPc nanowire solution and zinc phthalocyanine tetrasulfonate (ZnPcS4) solutions at various concentrations (60, 80, 120 mg/L) were irradiated using a 660/808 nm laser (diode laser, JENOPTIK unique-mode GmbH, Germany) at 3 W/cm^2. The temperature of each solution was measured with a thermocouple connected temperature controller (Hanyoung, Korea) at 20-second intervals for a total of 3 minutes. Three sets per each solution were measured.

[3] = tested on: KB cells; test: ROS generation in KB cells (Image-iT LIVE ROS Kit, H2DCFDA fluorescence); format: cell-based, human; conditions: irradiated with NIR 808 nm, 3 W/cm^2
Protocol: The PD activity of α-form ZnPc nanowire was proven by detecting reactive oxygen species generated upon illumination with NIR upon irradiation with NIR (λ=808 nm) laser. The reactive oxygen species generated from NIR-activated KB cells containing α-form ZnPc nanowires was assessed using Image-iT™ LIVE Reactive Oxygen Species (ROS) Kit.
This experiment is based on 5-(and-6)-carboxy-2′7′-dichlorodihydrofluorescein diacetate (carboxy-H2DCFDA) as a fluorogenic marker for ROS permeated viable cells. In the presence of ROS, the reduced carboxy-H2DCFDA is supposed to be oxidized to emit bright green fluorescence. Therefore, the oxidatively stressed cells by ROS could be recognized by green fluorescence.
The generation of reactive oxygen species (ROS) was monitored using Image-iT™ LIVE Reactive Oxygen Species Kit based on H2DCFDA (Molecular Probes/Invitrogen), following the manufacturer's protocol. Pre-seeded epidermoid mouth carcinoma cells (KB cells) were incubated with ZnPc nanowire solution (120 mg/L) at 37° C. with 5% CO2 for 18 hours. Then, after washing the cells thoroughly with phosphate buffer saline (PBS), the cells were irradiated with an 808 nm laser. […] In the presence of ROS, the reduced fluorescein compound is oxidized and emits bright green fluorescence. Fluorescence intensity was measured at 529 nm using a fluorescence spectrometer (Cary Eclipse, Varian).

Row | Compound | water solubility (qualitative) [1] | temperature of solution upon laser irradiation ([2]; 660 nm (FIGS. 18, 19), from room temperature, 60-120 mg/L) | temperature of solution upon laser irradiation ([2]; 808 nm, 120 mg/L) | amount of ROS generated (green fluorescence) [3]
1 | [Zn+2].c1ccc2c(c1)-c1nc-2nc2[n-]c(nc3nc([n-]c4nc(n1)-c1ccccc1-4)-c1ccccc1-3)c1ccccc21 [ZnPc powder, zinc-phthalocyanine] | did not increase | – | – | –
2 | zinc phthalocyanine tetrasulfonate [ZnPcS4] | – | similar | negligible temperature changes | insignificant
